Results from patent US20090325960A1, “METHOD FOR TREATING INFLAMMATORY DISEASES USING RHO KINASE INHIBITOR COMPOUNDS” (priority 2008, published 2009).
Read-outs that look alike come from different tables or passages of the source.

Assays:
Mnk2 = target: T1, Mnk2 (Homo sapiens, UniProt Q9HBH9); format: biochemical
T1 construct: purchased Upstate, Millipore Bioscience Division (KinaseProfiler service)
Procedure: (§1) Compounds of Formulae I and II were examined for activity against a selected panel of kinases using the KinaseProfiler™ enzyme profiling services (Upstate, Millipore Bioscience Division). Percent kinase activity at 10 μM and 1 μM test compound and 10 μM ATP was determined against 40 wild-type recombinant human kinases according to Upstate's standard protocol: ASK1, BTK, CSK, c-RAF, GCK, GSK3β, IKKα, IKKβ, IRAK1, IRAK4, JNK1α1, JNK2α2, JNK3, ERK1, ERK2, MAPKAP-K2, MAPKAP-K3, MEK1, MKK4, MKK6, MKK7β, Mnk2, MSK1, PAK3, PDK1, PRAK, ROCK1, Rsk2, SAPK2a, SAPK2b, SAPK3, SAPK4, SRPK1, SRPK2, Syk, TAK1, TBK1, PI3-Kβ, PI3-Kγ, PI3-Kδ.

[1] = test system: cytokine secretion from LPS-stimulated human monocytes; test: Human monocyte cytokine secretion assay (LPS-stimulated); format: cell-based
Procedure: Peripheral blood from healthy human volunteers was collected and the monocytes isolated via Ficoll-paque density centrifugation. […] The cells were allowed to pre-incubate with test compound at the indicated concentration for 30 minutes (37° C., 5% CO2, humidified air); after which the supernatant was removed and media containing compound and 1 ng/mL LPS was added. Cells were allowed to incubate with compounds and LPS for 4 hours at 37° C. after which the supernatant was removed and stored at −80° C. Cytokine concentrations in the supernatant were determined using commercially available Bio-Rad Bio-Plex™ kits according the manufacturer's instructions.

[2] = Rat oral pharmacokinetics (plasma); format: in vivo; conditions: rat oral PK, mean of n = 3 rats; for AUC (0-last): time zero through last observable value
Procedure: Plasma (EDTA K2 anticoagulant) was collected from male, cannulated, CD Sprague Dawley rats to determine the pharmacokinetics of formulations containing compound inhibitors of Rho kinase. Each animal was dosed orally with a 4 ml/kg solution or suspension of each test compound in 10 mM acetate buffered saline, pH 4.5 at a final concentration range of 20-30 mol/kg. Blood was collected at 0.25, 0.5, 1, 2, 4, 6, 8, and 24 hours. Plasma samples were assayed for the concentration of the test compound using an on-line, solid phase extraction LC/MS/MS analysis system.
Pharmacokinetic analyses were performed using WinNonlin software version 5.2 (Pharsight Corporation, Mountain View, Calif.).
As determined from the plasma concentration versus time curves, the time to peak and peak exposure are represented by the values Tmax and Cmax, respectively. The AUC values (nM*hr) shown were calculated as the areas under the plasma concentration versus time curves from time zero through the time of the last observable value and represent the total exposure of the compound over the course of the study. Half-life values or the amount of time required for the plasma levels of the compound to decline to half the initial value are represented as t1/2.

[3] = test system: A-10 rat thoracic aorta cells; test: PDGF-stimulated smooth muscle cell proliferation assay (BrdU incorporation); format: cell-based
Procedure: Effects on cell proliferation were measured using a bromodeoxyuridine (BrdU) incorporation assay. […] Serum free media containing 0.1% BSA was added to the cells. 24 hours later the media was removed and replaced with warmed serum free media. […] Proliferation was then monitored using the BrdU Cell Proiferation Assay, HTS (Calbiochem cat. # HTS01). BrdU was allowed to incorporate into cells for 24 hours prior to the addition of fixative/denaturing solution and the fluorometric detection of incorporated BrdU using a BrdU antibody as per manufacturer's directions. Data are reported as a percent of the PDGF-stimulated BrdU incorporation.

[4] = test system: ova-sensitized, ova-challenged BALB/c mice; test: Prevention of airway hyperreactivity (Penh, methacholine) in mouse ovalbumin sensitization model; format: in vivo; conditions: days 27 to 31; for airway hyperreactivity: intratracheal once a day
Procedure: The anti-inflammatory dosing paradigm consists of dosing the animals once a day starting on day 27 and finishing on either day 30 or 31 (1 hr prior to the aerosolized ovalbumin challenges on days 28 to 30) but not on day 32 when hyperreactivity evaluation occurs. […] Exposure to the methacholine doses consisted of a 3 minute period during which a nebulizer was aerosolizing the methacholine and an additional 3 minute period following the cessation of nebulization. […] Enhanced pause (Penh), a unitless index of airway hyperreactivity, is derived from the expiratory side of the respiratory waveform measured via the plethysmograph and is used as an indirect measure of airway resistance and hyperreactivity. […] Following the methacholine dose response, BALF was collected and all animals were anesthetized, bled and euthanized. […] The Penh value at each of the dose levels of methacholine represents the 6-minute average response. Change from baseline (CFB) in Penh was calculated at each methacholine dose and the area under the curve (AUC) for these CFB values was calculated using the trapezoidal rule. This same approach was applied for each mouse across multiple experiments. […] Data from equal experimental conditions across experiments performed on different days were pooled for statistical analysis and data reporting. […] A random intercept for each experiment was assumed to account for possible similarities of the results obtained from a given experiment (i.e., as a “blocking effect”). […] For FIG. 11, linear AUC values from compound treated mice were reported as a percent of linear AUC values from vehicle-treated ovalbumin-sensitized/ovalbumin-challenged (asthmatic) mice.

[5] = test system: ova-sensitized, ova-challenged BALB/c mice; test: In vivo anti-inflammatory activity, mouse ovalbumin sensitization model (BALF cells and cytokines); conditions: dosed orally to day 31, anti-inflammatory dosing paradigm
Procedure: Upon arrival, the animals were randomized into groups of five males per cage and assigned to a dosing group. Animals were quarantined for 7 days under test conditions. […] Animals were sensitized on day 0 and 14 of study by an intraperitoneal injection with 20 μg of ovalbumin (ova) and 2.0 mg aluminum hydroxide (alum) which initiates the development of a specific T-helper (Th) cells type 2 resulting in asthmatic animals (denoted as Ova in the fugures). One group of animals received an injection of saline to use as control animals (denoted as normal in the figures). […] Aerosol challenge consists of using an Aerogen Aeroneb nebulizer and controller with a particle size of 4-6 μm mass median aerodynamic diameter (MMAD) with a distribution of 400 μl per minute. This aerosol challenge is necessary to target the Th2-driven allergic inflammation in the lower airways.
The anti-inflammatory dosing paradigm (FIG. 5) was utilized to evaluate the anti-inflammatory effects of experimental compounds. […] On day 32 of the experiment, after measurement of airway hyperreactivity, BALF was collected and all animals were anesthetized, bled and euthanized.
Bronchoalveolar lavage fluid (BALF) was collected by infusing 3.0 ml of saline with 10% fetal calf serum into the lungs via the trachea and then withdrawing the fluid. The total amount of cells/ml of BALF fluid was determined via manual cell count on hemocytometer. The BALF was centrifuged, supernatant removed and analyzed for cytokine concentrations as described below, and cell pellet reconstituted in 500 μL of fluid. Cytospin slides were prepared from the cell pellet using 100 μL of fluid and spinning samples for 5 minutes at 5000 rpms in a cytospin centrifuge, Following Hema3 stain, relative percentages of individual leukocytes were determined on a 200 cell count for each sample. The final concentration of individual leukocyte cell types per ml of BALF was determined by multiplication of the relative percentage of individual leukocytes with the total amount of cells/ml of BALF fluid.
The concentrations of cytokines in the BALF samples were determined using commercially available Bio-plex kits (Bio-Rad) for the detection of mouse IL-5, IL-13, and Eotaxin. The analysis of cytokine levels was measured using the Bio-Plex 200 (Bio-Rad) system according to the manufacturer's instructions.

ERK1 = target: T2, ERK1 (Homo sapiens, UniProt P27361); test: Kinase panel screen (KinaseProfiler), ERK1; format: biochemical; conditions: 1 μM test compound, 10 μM ATP
T2 construct: purchased Upstate, Millipore Bioscience Division (KinaseProfiler service)
Procedure: as §1

ERK2 = target: T3, ERK2 (Homo sapiens, UniProt P28482); test: Kinase panel screen (KinaseProfiler), ERK2; format: biochemical; conditions: 1 μM test compound, 10 μM ATP; read-out: Percent inhibition ERK2 at 1 μM
T3 construct: purchased Upstate, Millipore Bioscience Division (KinaseProfiler service)
Procedure: as §1

[6] = test system: monocytes, endothelial cells, and lymphocytes; conditions: cited from earlier work
[7] = 10 μM of test compound, 1 ng/mL LPS, 4 hours, read-out: TNF-α % (Percent inhibition values for inhibition of cytokine secretion)
[8] = read-out: IL-6 % (Percent inhibition values for inhibition of cytokine secretion), 10 μM of test compound, 1 ng/mL LPS, 4 hours
[9] = 10 μM of test compound, 1 ng/mL LPS, 4 hours, read-out: IL-1β % (Percent inhibition values for inhibition of cytokine secretion)

T1 sequence (Q9HBH9 whole entry): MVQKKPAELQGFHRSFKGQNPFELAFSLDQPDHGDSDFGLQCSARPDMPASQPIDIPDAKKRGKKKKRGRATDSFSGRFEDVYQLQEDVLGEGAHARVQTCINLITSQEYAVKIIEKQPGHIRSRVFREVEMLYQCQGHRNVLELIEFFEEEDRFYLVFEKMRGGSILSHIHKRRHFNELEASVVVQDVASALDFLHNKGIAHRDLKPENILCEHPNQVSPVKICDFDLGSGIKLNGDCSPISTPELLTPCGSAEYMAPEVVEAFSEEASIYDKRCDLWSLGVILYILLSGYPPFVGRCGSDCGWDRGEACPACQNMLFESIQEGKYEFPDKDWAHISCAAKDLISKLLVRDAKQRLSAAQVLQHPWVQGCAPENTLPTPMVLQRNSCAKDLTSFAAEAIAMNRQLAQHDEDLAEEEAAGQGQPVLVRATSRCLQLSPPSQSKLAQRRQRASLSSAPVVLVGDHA
T3 sequence (P28482 whole entry): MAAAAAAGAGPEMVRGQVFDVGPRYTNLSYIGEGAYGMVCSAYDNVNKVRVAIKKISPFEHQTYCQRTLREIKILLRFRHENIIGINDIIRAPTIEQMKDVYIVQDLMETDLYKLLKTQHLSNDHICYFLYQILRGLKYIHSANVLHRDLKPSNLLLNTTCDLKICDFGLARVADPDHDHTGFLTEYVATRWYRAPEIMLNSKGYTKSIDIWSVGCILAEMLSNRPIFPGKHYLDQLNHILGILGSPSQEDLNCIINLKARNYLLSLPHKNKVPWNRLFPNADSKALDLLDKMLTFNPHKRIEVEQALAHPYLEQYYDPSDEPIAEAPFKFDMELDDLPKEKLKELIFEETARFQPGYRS
T2 sequence (P27361 whole entry): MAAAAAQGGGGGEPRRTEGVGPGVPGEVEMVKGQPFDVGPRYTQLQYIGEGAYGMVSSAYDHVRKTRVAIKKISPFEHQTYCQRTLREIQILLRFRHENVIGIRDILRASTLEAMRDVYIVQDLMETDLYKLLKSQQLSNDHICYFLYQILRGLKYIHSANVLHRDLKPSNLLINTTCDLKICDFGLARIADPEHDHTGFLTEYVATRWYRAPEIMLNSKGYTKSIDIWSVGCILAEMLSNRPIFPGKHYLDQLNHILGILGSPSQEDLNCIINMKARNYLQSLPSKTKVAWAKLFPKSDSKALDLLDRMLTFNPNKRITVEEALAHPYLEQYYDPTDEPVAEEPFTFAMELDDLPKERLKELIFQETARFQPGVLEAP

Structure (SMILES) | activity at 10 µM [1, 7] [%] | activity at 10 µM [1, 8] [%] | activity at 10 µM [1, 9] [%] | further results
NC(=O)Cn1ccc2cc(CN3CCC[C@@H](Nc4ccc5[nH]ncc5c4)C3)ccc21 [Compound 1.162, (R)-2-(5-((3-(1H-indazol-5-ylamino)piperidin-1-yl)methyl)-1H-indol-1-yl)acetamide] | – | – | – | Percent inhibition Mnk2 at 1 μM (Mnk2): 111
Fc1ccc(CN2CCC[C@@H](Nc3ccc4[nH]ncc4c3)C2)cc1 [Compound 1.146, (R)-N-(1-(4-fluorobenzyl)piperidin-3-yl)-1H-indazol-5-amine] | 97.7 | 128 | – | –
Cc1ccc(CN2CCC[C@H](Nc3ccc4[nH]ncc4c3)C2)cc1O [Compound 1.151, (S)-5-((3-(1H-indazol-5-ylamino)piperidin-1-yl)methyl)-2-methylphenol] | – | 114 | – | –
Clc1cccc(CN2CCC[C@H](Nc3ccc4[nH]ncc4c3)C2)c1 [Compound 1.170, (S)-N-(1-(3-chlorobenzyl)piperidin-3-yl)-1H-indazol-5-amine] | 67.8 | 72.7 | 80.6 | –
C=Cc1ccc(CN2CCC[C@@H](Nc3ccc4[nH]ncc4c3)C2)cc1 [Compound 1.208, (R)-N-(1-(4-vinylbenzyl)piperidin-3-yl)-1H-indazol-5-amine] | 92 | 109 | 62 | –
COc1ccc(CN2CCC[C@@H](Nc3ccc4[nH]ncc4c3)C2)cc1 [Compound 1.226, (R)-N-(1-(4-methoxybenzyl)piperidin-3-yl)-1H-indazol-5-amine] | 66.6 | – | 99.3 | –
O=C(COc1cccc(CN2CCC[C@@H](Nc3ccc4[nH]ncc4c3)C2)c1)N1CCOCC1 [Compound 1.127, (R)-2-(3-((3-(1H-indazol-5-ylamino)piperidin-1-yl)methyl)phenoxy)-l-morpholinoethanone] | 97.3 | 67.3 | 198 | –
c1ccc(CN2CCC[C@H](Nc3ccc4[nH]ncc4c3)C2)cc1 [Compound 1.227, (S)-N-(1-benzylpiperidin-3-yl)-1H-indazol-5-amine] | 79.3 | 66.7 | 69.4 | –
CCc1ccc(CN2CCC[C@@H](Nc3ccc4[nH]ncc4c3)C2)cc1 [Compound 1.136, (R)-N-(1-(4-ethylbenzyl)piperidin-3-yl)-1H-indazol-5-amine] | – | – | – | Cmax [2]: BLQ; Tmax [2]: BLQ; Vz_F [2]: BLQ; t½ [2]: BLQ; AUC (0-last) [2]: BLQ
Cc1ccc(CN2CCC[C@H](Nc3ccc4[nH]ncc4c3)C2)cc1 [Compound 1.078, (S)-N-(1-(4-methylbenzyl)piperidin-3-yl)-1H-indazol-5-amine] | 88.1 | 111 | 60.4 | –
C=Cc1ccc(CN2CCC[C@H](Nc3ccc4[nH]ncc4c3)C2)cc1 [Compound 1.229, (S)-N-(1-(4-vinylbenzyl)piperidin-3-yl)-1H-indazol-5-amine] | 50.7 | 63.2 | 44.9 | –
Cc1ccc(CN2CCC[C@@H](Nc3ccc4[nH]ncc4c3)C2)cc1OCCO [Compound 1.161, (R)-2-(5-((3-(1H-indazol-5-ylamino)piperidin-1-yl)methyl)-2-methylphenoxy)ethanol] | – | – | – | Proliferation at 1 μM ([3]; average percent of PDGF stimulated proliferation at 1 μM test compound): 50.0%; Percent inhibition Mnk2 at 1 μM (Mnk2): 108; airway hyperreactivity [4]: prevention of airway hyperreactivity
c1cc2cc(CN3CCC[C@@H](Nc4ccc5[nH]ncc5c4)C3)ccc2o1 [Compound 1.131, (R)-N-(1-(benzofuran-5-ylmethyl)piperidin-3-yl)-1H-indazol-5-amine] | – | – | – | airway eosinophil infiltration (eosinophils per ml of BALF) [5]: reduced; airway hyperreactivity to metacholine on Day 32 ([4]; oral 15 μMol/kg once a day): prevention of airway hyperreactivity; Vz_F [2]: 6.8 L/kg
OCCn1ccc2cc(CN3CC[C@@H](Nc4cccc5cnccc45)C3)ccc21 [Compound 2.066, (R)-2-(5-((3-(isoquinolin-5-ylamino)pyrrolidin-1-yl)methyl)-1H-indol-1-yl)ethanol] | – | – | – | Percent inhibition at 1 µM (ERK1): ~50%; Percent inhibition Mnk2 at 1 μM (Mnk2): 99; activity at 1 µM (ERK2): ~50%; airway hyperreactivity [4]: prevention of airway hyperreactivity
c1cc2cc(CN3CCC[C@@H](Nc4ccc5[nH]ncc5c4)C3)ccc2[nH]1 [Compound 1.143, (R)-N-(1-((1H-indol-5-yl)methyl)piperidin-3-yl)-1H-indazol-5-amine] | – | – | 76.8 | –
Brc1ccc(CN2CCC[C@H](Nc3ccc4[nH]ncc4c3)C2)cc1 [Compound 1.142, (S)-N-(1-(4-bromobenzyl)piperidin-3-yl)-1H-indazol-5-amine] | – | – | 82.8 | –
c1ccc(CN2CCC[C@@H](Nc3ccc4[nH]ncc4c3)C2)cc1 [Compound 1.110, (R)-N-(1-benzylpiperidin-3-yl)-1H-indazol-5-amine] | 119 | 112 | 134 | –
Oc1cccc(CN2CCC[C@@H](Nc3ccc4[nH]ncc4c3)C2)c1 [Compound 1.145, (R)-3-((3-(1H-indazol-5-ylamino)piperidin-1-yl)methyl)phenol] | – | – | 129 | –
OCCOc1cccc(CN2CCC[C@@H](Nc3ccc4[nH]ncc4c3)C2)c1 [Compound 1.092, (R)-2-(3-((3-(1H-indazol-5-ylamino)piperidin-1-yl)methyl)phenoxy)ethanol] | – | – | – | Vz_F [2]: 19.0 L/kg
Fc1ccc(CN2CCC[C@H](Nc3ccc4[nH]ncc4c3)C2)cc1F [Compound 1.072, (S)-N-(1-(3,4-difluorobenzyl)piperidin-3-yl)-1H-indazol-5-amine] | 83.8 | 96.1 | 98.2 | –
CSc1ccc(CN2CCC[C@@H](Nc3ccc4[nH]ncc4c3)C2)cc1 [Compound 1.074, (R)-N-(1-(4-(methylthio)benzyl)piperidin-3-yl)-1H-indazol-5-amine] | – | 96 | – | –
CSc1ccc(CN2CC[C@@H](Nc3cccc4cnccc34)C2)cc1 [Compound 2.026, (R)-N-(1-(4-(methylthio)benzyl)pyrrolidin-3-yl)isoquinolin-5-amine] | – | – | – | Percent of PDGF Induced Proliferation at 10 μM Avg ([3]; 10 μM, 10 ng/mL PDGF): 52.0%; Proliferation at 10 μM ([3]; average percent of PDGF stimulated proliferation at 10 μM test compound): 52.0%; Cmax [2]: BLQ; Tmax [2]: BLQ; Vz_F [2]: BLQ; t½ [2]: BLQ; AUC (0-last) [2]: BLQ
c1cc2c(cc1CN1CCC[C@@H](Nc3ccc4[nH]ncc4c3)C1)CCO2 [Compound 1.246, (R)-N-(1-((2,3-dihydrobenzofuran-5-yl)methyl)piperidin-3-yl)-1H-indazol-5-amine] | 79 | 108 | 103 | –
NC(=O)Cn1ccc2ccc(CN3CC[C@@H](Nc4cccc5cnccc45)C3)cc21 [Compound 2.058, (R)-2-(6-((3-(isoquinolin-5-ylamino)pyrrolidin-1-yl)methyl)-1H-indol-1-yl)acetamide] | – | 1.3 | – | –
C[C@@H](N)[C@H]1CC[C@H](C(=O)Nc2ccncc2)CC1 [Compound Y-27632] | – | – | – | expression of IL-1β, TNFα, and various other cytokines [6]: suppress expression
